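48-hour exposure; five concentrations; linearly interpolated endpoints. GI50 = concentration required for 50% inhibition of growth. TGI: total growth inhibition.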
Legend:
Test in all cases: NCI tumour cell line growth inhibition, 48 h; in the data active = GI50 below about 0.43 µM; inactive = the rest
[1] = test system: OVCAR-4 ovarian
[2] = test system: HOP-92 NSCLC
[3] = test system: OVCAR-8 ovarian
[4] = test system: SK-MEL-28 melanoma
[5] = test system: SW-620 colon
[6] = test system: IGROV1 ovarian
[7] = test system: HL-60(TB) leukemia
[8] = test system: MDA-MB-435
[9] = test system: SK-OV-3 ovarian
[10] = test system: SR leukemia
[11] = test system: SK-MEL-2 melanoma
[12] = test system: U251 CNS
[13] = test system: OVCAR-5 ovarian
[14] = test system: EKVX NSCLC
[15] = test system: SF-268 CNS
[16] = test system: SK-MEL-5 melanoma
[17] = test system: MALME-3M melanoma
[18] = test system: BT-549 breast
[19] = test system: HCT-15 colon
[20] = test system: T-47D breast
[21] = test system: ACHN renal
[22] = test system: HS 578T breast
[23] = test system: SNB-75 CNS
[24] = test system: HCT-116 colon
[25] = test system: DU-145 prostate
[26] = test system: KM12 colon
[27] = test system: SNB-19 CNS
[28] = test system: HOP-62 NSCLC
[29] = test system: LOX IMVI melanoma
[30] = test system: COLO 205 colon
[31] = test system: MCF7 breast
[32] = test system: A498 renal
[33] = test system: M14 melanoma
[34] = test system: RXF 393 renal
[35] = test system: NCI-H23 lung
[36] = test system: OVCAR-3 ovarian
[37] = test system: K-562 leukemia
[38] = test system: NCI-H522 lung
[39] = test system: HT29 colon
[40] = test system: SF-539 CNS
[41] = test system: SN12C renal
[42] = test system: UACC-257 melanoma
[43] = test system: PC-3 prostate
[44] = test system: NCI-H460 lung
[45] = test system: RPMI-8226 leukemia
[46] = test system: NCI-H226 lung
[47] = test system: CCRF-CEM leukemia
[48] = test system: MDA-MB-231 breast
[49] = test system: NCI/ADR-RES ovarian
[50] = test system: HCC-2998 colon
[51] = test system: 786-0 renal
[52] = test system: UACC-62 melanoma
[53] = test system: A549 NSCLC
[54] = test system: TK-10 renal
[55] = test system: UO-31 renal
[56] = test system: SF-295 CNS
[57] = test system: MOLT-4 leukemia

CCCCCCCCCCCCCCCC(=O)Nc1ccn([C@@H]2O[C@H](CO)[C@@H](O)[C@@H]2C#N)c(=O)n1
> 100 µM: TGI [1] | TGI [2] | TGI [3] | TGI [4] | TGI [5] | TGI [6] | TGI [7] | TGI [8] | TGI [9] | TGI [11] | TGI [12] | TGI [13] | TGI [14] | TGI [15] | TGI [18] | TGI [19] | TGI [21] | TGI [22] | TGI [23] | TGI [25] | TGI [26] | TGI [27] | TGI [28] | TGI [30] | TGI [32] | TGI [34] | TGI [36] | TGI [39] | TGI [40] | TGI [41] | TGI [42] | TGI [43] | TGI [45] | TGI [46] | TGI [47] | TGI [49] | TGI [50] | TGI [51] | TGI [52] | TGI [54] | TGI [55] | TGI [56]
inactive: GI50 [1] 36.4 µM | GI50 [2] 5.52 µM | GI50 [3] 15.4 µM | GI50 [4] 33.1 µM | GI50 [5] 26.7 µM | GI50 [6] 33.9 µM | GI50 [7] 21.1 µM | GI50 [8] 39.5 µM | GI50 [9] 45.6 µM | GI50 [10] 8.01 µM | GI50 [11] 42.3 µM | GI50 [12] 20.8 µM | GI50 [13] 51.6 µM | GI50 [14] > 52.7 µM | GI50 [15] 30.4 µM | GI50 [16] 15.2 µM | GI50 [17] 17.3 µM | GI50 [18] 34.9 µM | GI50 [19] 50.8 µM | GI50 [20] 33.2 µM | GI50 [21] 8.76 µM | GI50 [22] > 100 µM | GI50 [23] > 58.6 µM | GI50 [24] 4.77 µM | GI50 [25] 9.03 µM | GI50 [26] 33.7 µM | GI50 [27] 6.02 µM | GI50 [28] 20.5 µM | GI50 [29] 10.2 µM | GI50 [30] 17.6 µM | GI50 [31] 3.29 µM | GI50 [32] > 82 µM | GI50 [33] 11.8 µM | GI50 [34] > 77.9 µM | GI50 [35] 12 µM | GI50 [36] > 100 µM | GI50 [37] 14.6 µM | GI50 [38] 13.1 µM | GI50 [39] 35.8 µM | GI50 [40] > 100 µM | GI50 [41] 29.7 µM | GI50 [42] 46.3 µM | GI50 [43] 35.9 µM | GI50 [44] 2.38 µM | GI50 [45] 49.8 µM | GI50 [46] 30.7 µM | GI50 [48] 25.9 µM | GI50 [49] 18.4 µM | GI50 [50] 14.5 µM | GI50 [51] 10.1 µM | GI50 [52] 17.2 µM | GI50 [53] 11.7 µM | GI50 [54] > 100 µM | GI50 [55] 14.5 µM | GI50 [56] 21.5 µM
37.9 µM: TGI [29]
> 96.4 µM: TGI [48]
> 84.5 µM: TGI [35]
60.4 µM: TGI [17]
> 80.6 µM: TGI [24]
98.1 µM: TGI [10]
> 83.6 µM: TGI [33]
> 88.7 µM: TGI [20]
> 52.4 µM: TGI [37]
33.3 µM: TGI [38]
30.3 µM: TGI [53]
30 µM: TGI [31]
28.8 µM: TGI [16]
26.2 µM: TGI [57]
24.5 µM: TGI [44]

From PubChem BioAssay (NCI)
